Source: article PMC6753678, “Fueling Open Innovation for Malaria Transmission-Blocking Drugs: Hundreds of Molecules Targeting Early Parasite Mosquito Stages” (Frontiers in Microbiology, 2019)
pIC50: −log10 of the molar value. Where two headings read alike, the source gives them in different places.

Assays:
[1] = system: 3D7-strain P. falciparum asexual parasites; assay: P. falciparum asexual growth inhibition assay (Pf GIA); format: cell-based, Plasmodium falciparum; conditions: dose response confirmation; read-out: Pf asexual growth inhibition assays IC50
In short: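 Parasites at 0.25% parasitemia, 2% hematocrit in Albumax-supplemented RPMI were exposed to compounds in dose response for 72 h at 37°C under 5% CO2/5% O2. Viability was read as LDH activity (NBT/diaphorase, A650 after freeze-thaw). Percent inhibition was calculated against chloroquine and DMSO controls, mean of three biological replicates.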

HepG2 cells = assay: HepG2 cytotoxicity assay; conditions: for Unified cytotox: HepG2 values of the three screens unified; for pIC50: read-out: HepG2 cytotoxicity assay IC50, dose response confirmation; for Pb ODA (this manuscript) HepG2 cytoxicity: HepG2 cytotoxicity listed with the Pb ODA data set (this manuscript)
In short: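 Percent inhibition derived from fluorescent viability readout, normalised to DMSO (negative) and 50 μM doxorubicin (positive). Compound incubation lasted 48 h at 37°C, 5% CO2, with 2,500 HepG2 cells/well in MEM plus 10% FBS and 1% NEAA.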

[2] = system: P. berghei ookinete development; conditions: for % inhibition, Replicate A / % inhibition, Replicate B: primary screen at 1 μM
[3] = read-out: Pb ODA IC50, this manuscript
[4] = read-out: Pb Ookinete development assay IC50, dose response confirmation
[5] = read-out: Pb ODA (this manuscript) IC50, P. berghei ookinete development assay, this manuscript

| Compound | pIC50 [1] | HepG2 cytoxicity (Pb ODA, this manuscript) (HepG2 cells) [µM] | Unified cytotox (HepG2 cells) [µM] | pIC50 (HepG2 cells) | Is compound selective in assay? Pb ODA active? ([2]; 1: YES, 0: NO) | % inhibition, Replicate A [2] [%] | % inhibition, Replicate B [2] [%] | pIC50 [2, 3] | pIC50 [2, 4] | Pb ODA (this manuscript) HepG2 cytoxicity (HepG2 cells) [µM] | Is compound selective in assay? Pb ODA active? [2] | pIC50 [2, 5] |
| --- | --- | --- | --- | --- | --- | --- | --- | --- | --- | --- | --- | --- |
| Cc1[nH]c(C)c(-c2ccc(OCc3cccc(C(F)(F)F)c3)nc2)c(=O)c1Br [TCMDC-135656] | 7.39 | 8.61 | 8.61 | 5.06 | 1 (1: YES) | 92.61 | 102.80 | 6.96 | 6.97 |  |  |  |
| Cc1[nH]c(C)c(-c2ccc(OCc3ccc(F)cc3)nc2)c(=O)c1Br [TCMDC-135657] | 6.76 |  | 100.00 | 4.00 | 1 (1: YES) | 61.60 | 80.51 | 6.22 | 6.22 |  |  |  |
| Cc1[nH]c(C)c(-c2ccc(OCc3cc(F)cc(F)c3)nc2)c(=O)c1Cl [TCMDC-135676] | 7.44 | 7.85 | 7.85 | 5.11 | 0 (0: NO) | 78.17 | 102.44 | 5.68 | 5.68 |  |  |  |
| Cc1[nH]c(C)c(-c2ccc(-c3ccc(OC(F)(F)F)cc3)nc2)c(=O)c1Cl [TCMDC-135677] | 6.40 | 23.71 | 23.71 | 4.63 | 1 (1: YES) | 103.64 | 93.64 | 6.57 | 6.58 |  |  |  |
| Cc1[nH]c(C)c(-c2ccc(CCc3ccc(N)cc3)cc2)c(=O)c1Cl [TCMDC-135678] | 6.55 |  | 100.00 | 4.00 | 1 (1: YES) | 46.90 | 71.02 | 5.96 | 5.96 |  |  |  |
| Cc1[nH]c(C)c(-c2ccc(OCc3cc(F)cc(F)c3)nc2)c(=O)c1Br [TCMDC-135683] | 6.73 | 25.41 | 25.41 | 4.59 | 1 (1: YES) | 82.45 | 85.99 | 6.39 | 6.39 |  |  |  |
| COc1nc2c(CCN3CCC(NCc4ccc5c(n4)NC(=O)CO5)CC3)c(Cl)cnc2cc1F.Cl [TCMDC-135766] | 5.56 |  |  | 4.37 |  | 65.11 | 58.19 |  | 5.43 | 42.66 | 1 (key: 1: YES; 0: NO) | 5.43 |
| COc1nc2c(CCN3CCC(NCc4ccc5c(c4)NCCO5)CC3)c(Cl)cnc2cc1F.Cl [TCMDC-135768] | 6.23 |  |  | 4.84 |  | 14.93 | 54.54 |  | 5.45 | 14.45 | 0 (key: 1: YES; 0: NO) | 5.45 |
| Cc1[nH]c(C)c([N+](=O)[O-])c(=O)c1-c1ccc(Oc2ccccc2)cc1 [TCMDC-135779] | 6.09 |  |  | 4.00 |  | 85.12 | 87.09 |  | 6.27 | 100.00 | 1 (key: 1: YES; 0: NO) |  |
| Cc1[nH]c(C)c(-c2ccc(/C=C/c3ccccn3)cc2)c(=O)c1Cl [TCMDC-135787] | 5.90 |  | 100.00 | 4.00 | 1 (1: YES) | 50.60 | 51.03 |  | 5.98 |  |  |  |
| COc1ccc(CCc2ccc(-c3c(C)[nH]c(C)c(Cl)c3=O)cc2)cc1OC [TCMDC-135789] | 6.92 |  | 100.00 | 4.00 | 1 (1: YES) | 97.42 | 111.57 | 6.55 | 6.56 |  |  |  |
| Cc1[nH]c(C)c(-c2ccc(OCCCc3ccccn3)cc2)c(=O)c1Br.Cl [TCMDC-135795] | 8.18 |  |  | 6.77 |  | 72.29 | 89.65 |  | 6.23 | 0.17 | 0 (key: 1: YES; 0: NO) | 6.23 |
| Cc1[nH]c(C)c(-c2ccc(OCc3ccccc3C(F)(F)F)nc2)c(=O)c1Br [TCMDC-135796] | 7.44 | 3.02 | 3.02 | 5.52 | 1 (1: YES) | 84.05 | 98.42 | 7.40 | 7.38 |  |  |  |
| COc1nc2c(CCN3CC[C@H](NCc4ccc5c(c4)NC(=O)CO5)[C@H](O)C3)c(Cl)cnc2cc1F.Cl [TCMDC-135805] | 5.88 |  |  | 4.92 |  | 46.55 | 63.06 |  | 6.11 | 12.02 | 1 (key: 1: YES; 0: NO) |  |
| Cc1[nH]c(C)c(-c2ccc(OCc3cc(C(F)(F)F)cc(C(F)(F)F)c3)nc2)c(=O)c1Cl [TCMDC-135814] | 6.73 | 1.66 | 1.66 | 5.78 | 1 (1: YES) | 68.02 | 98.05 | 6.80 | 6.79 |  |  |  |
| Cc1[nH]c(C)c(-c2ccc(OCc3cc(C(F)(F)F)cc(C(F)(F)F)c3)nc2)c(=O)c1Br [TCMDC-135815] | 6.55 | 0.71 | 0.71 | 6.15 | 0 (0: NO) | 74.97 | 105.72 | 6.92 | 6.91 |  |  |  |
| CCCCCCCc1ccc(-c2c(C)[nH]c(C)c(Cl)c2=O)cn1 [TCMDC-135816] | 6.45 | 30.90 | 30.90 | 4.51 | 1 (1: YES) | 56.53 | 81.98 | 6.24 | 6.24 |  |  |  |
| Cc1[nH]c(C)c(-c2ccc(-c3ccccc3C(F)(F)F)nc2)c(=O)c1Br [TCMDC-135881] | 6.72 |  | 100.00 | 4.00 | 1 (1: YES) | 87.53 | 97.69 | 6.01 | 6.01 |  |  |  |
| Cc1[nH]c(C)c(-c2ccc(-c3cccc(C(F)(F)F)c3)nc2)c(=O)c1Br [TCMDC-135911] | 7.35 |  | 100.00 | 4.00 | 1 (1: YES) | 105.47 | 112.19 |  | 6.40 |  |  |  |
